Test [1] concerns the target T1, Proto-oncogene tyrosine-protein kinase receptor Ret (Homo sapiens, UniProt P07949). In words: Inhibition of human RET kinase cytoplasmic domain by Time-Resolved fluorescence reader assay.
Test [2] addresses T1, Proto-oncogene tyrosine-protein kinase receptor Ret. In words: Inhibition of human RET kinase in TT cells by TRET Kinase cell-based mechanistic assay.

pIC50: −log10 of the molar value.

T1 sequence (P07949 whole entry, the tested form may be a part): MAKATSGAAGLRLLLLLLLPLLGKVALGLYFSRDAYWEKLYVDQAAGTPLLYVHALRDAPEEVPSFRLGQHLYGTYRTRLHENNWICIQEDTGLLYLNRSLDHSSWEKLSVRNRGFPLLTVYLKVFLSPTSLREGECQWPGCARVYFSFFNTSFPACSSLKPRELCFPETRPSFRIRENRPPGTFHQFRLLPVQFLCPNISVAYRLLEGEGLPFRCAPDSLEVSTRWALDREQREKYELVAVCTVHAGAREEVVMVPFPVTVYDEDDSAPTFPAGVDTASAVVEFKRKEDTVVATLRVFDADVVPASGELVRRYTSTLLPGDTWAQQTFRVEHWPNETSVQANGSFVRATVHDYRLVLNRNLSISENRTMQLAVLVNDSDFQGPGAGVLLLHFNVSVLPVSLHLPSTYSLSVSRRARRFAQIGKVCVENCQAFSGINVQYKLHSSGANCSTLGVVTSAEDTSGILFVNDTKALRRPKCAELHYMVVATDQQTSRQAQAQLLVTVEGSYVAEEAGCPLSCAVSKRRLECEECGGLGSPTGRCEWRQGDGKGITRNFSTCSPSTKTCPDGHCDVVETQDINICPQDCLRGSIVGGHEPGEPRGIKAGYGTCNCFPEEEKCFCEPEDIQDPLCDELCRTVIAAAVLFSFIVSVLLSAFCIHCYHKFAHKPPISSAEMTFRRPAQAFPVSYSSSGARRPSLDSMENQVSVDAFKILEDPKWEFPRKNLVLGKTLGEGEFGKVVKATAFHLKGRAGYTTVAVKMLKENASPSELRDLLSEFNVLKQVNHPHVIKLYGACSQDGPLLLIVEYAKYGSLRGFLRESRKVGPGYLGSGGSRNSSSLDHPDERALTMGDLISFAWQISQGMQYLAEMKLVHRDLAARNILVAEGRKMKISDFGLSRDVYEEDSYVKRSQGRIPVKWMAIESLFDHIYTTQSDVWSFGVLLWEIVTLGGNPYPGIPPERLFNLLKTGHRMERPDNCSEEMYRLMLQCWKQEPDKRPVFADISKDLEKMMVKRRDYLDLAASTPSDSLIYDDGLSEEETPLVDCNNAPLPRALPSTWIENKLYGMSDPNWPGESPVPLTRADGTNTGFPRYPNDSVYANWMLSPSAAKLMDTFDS

Regarding `CCOc1cc(-c2ccc(CC(=O)Nc3ccc(Cl)c(Cl)c3)c(F)c2)c[nH]c1=O`, the negative-log IC50 (pIC50) in test [1] was not above 7.00; in test [2], less than 6.30.

One may read the pIC50 as the negative decadic logarithm of the IC50, by convention in mol/L. The low end stands for a large IC50, the high end for a small IC50.

Source of the values: ChEMBL document CHEMBL3352525, “RET Kinase Inhibitors May Treat Cancer and Gastrointestinal Disorders” (ACS Med Chem Lett, 2015).
